Marks after values point to notes of the source that are not given here.
Key:
mouse organs = experiment: In vivo activity screening in mice: organ mean total flux (p/s) of luciferase activity after injection of F2 LNP pools (Table 6, FIG. 7A-7C); details: Mouse 1, dose 0.3 mg/kg, luciferase mRNA
Method in brief: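 Luciferase output per organ is reported as mean total flux (p/s) from IVIS regions of interest. Organs were collected from perfused C57BL/6J mice and imaged 10-15 min after s.c. D-luciferin, 4-6 h after i.v. dosing. Dosing was 0.25-3 mg/kg luciferase mRNA in F2 LNP pools.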

[1] = Plate-based fluorescence (RiboGreen) assay: nucleic acid cargo content and encapsulation efficiency of LNPs; type: physicochemical; details: for EE % / mRNA Content: LNP compositions for in vivo mouse study, four formulations (F1-F4) pooled, or pools of four compounds; for EE (%) N/P:3 / EE (%) N/P:6: LNP
Protocol: (§1) Lipids and active ingredients (e.g., RNA, DNA, etc.) were assembled into LNPs using microfluidic mixing. An ethanol phase was prepared by solubilizing ionizable lipids (i.e., lipid compounds), phospholipids (e.g., DSPC), cholesterol, and PEG lipids in ethanol, at predetermined mol % ratios given in Table 2. An aqueous phase was prepared by diluting a nucleic acid cargo (e.g., firefly luciferase mRNA) in an acidified buffer (pH 4.0 citrate buffer, 50 mM). A chip with microfluidic mixing architecture (e.g., toroidal mixer) was used to mix the two phases at predetermined flow rate ratios (e.g., 9 ml/min for the aqueous phase and 3 ml/min for the ethanol phase). Resulting LNPs comprising the lipids and encapsulating the nucleic acid cargo were dialyzed against PBS pH 7.4 for 2 hours at room temperature in a 20 kDa MWCO dialysis membrane. Then, PBS was refreshed to continue dialysis overnight at 2-8 TC. Upon completion of the buffer exchange, LNPs were optionally concentrated using a ultracentrifugal unit with a 10-100 kDa MWCO membrane.
c. Plate-Based Fluorescence (RiboGreen) Assay
Nucleic acid cargos in the LNPs were quantified by RiboGreen assay, against a nucleic acid standard curve. LNPs encapsulating nucleic acid cargo were mixed with 1× Tris-EDTA (TE) and 2% triton in TE, separately, to achieve dilutions required by the assay. Then, the samples were heated at 30° C. and vortexed at 300 rpm. Samples were plated into 96-well plates and RiboGreen reagent was added into each well. Following incubation in the dark, fluorescence was measured from the wells, and plotted against the standard curve. Nucleic acid concentration obtained from the Triton-treated samples were used for total cargo concentration quantification. Only TE diluted sample fluorescence values were used to determine the non-encapsulated (free) cargo, and their ratio was used to determine the encapsulation efficiency (EE %).

[2] = Dynamic light scattering: LNP particle size and PDI; type: physicochemical; details: for Particle Size (nm) / PDI: LNP compositions for in vivo mouse study; for Particle Size (nm): four formulations (F1-F4) of the lipid compound pooled, or pools of four compounds (sixteen compositions); for PDI: four formulations (F1-F4) pooled, or pools of four compounds; for PDI N/P:3 / Size (nm) N/P:3 / PDI N/P:6 / Size (nm) N/P:6: LNP
Protocol: as §1
d. Dynamic Light Scattering
LNPs were diluted with PBS pH 7.4 to predetermined dilution ranges based on the process step and LNP concentration. Following mixing, the particle size and PDI were measured by a dynamic light scattering instrument.

Compound | Organ Mean Total Flux Femur (mouse organs) | Organ Mean Total Flux Heart (mouse organs) | Organ Mean Total Flux Kidney (mouse organs) | Organ Mean Total Flux Liver (mouse organs) | EE % [1] [%] | mRNA Content [1] [µg/mL] | EE (%) N/P:6 ([1]; Formulation F1, N/P 6) [%] | EE (%) N/P:6 ([1]; Formulation F2, N/P 6) [%] | EE (%) N/P:6 ([1]; Formulation F3, N/P 6) [%] | EE (%) N/P:6 ([1]; Formulation F4, N/P 6) [%] | Particle Size (nm) [2] [nm] | PDI [2] | PDI N/P:6 ([2]; Formulation F1, N/P 6) | Size (nm) N/P:6 ([2]; Formulation F1, N/P 6) [nm] | PDI N/P:6 ([2]; Formulation F2, N/P 6) | Size (nm) N/P:6 ([2]; Formulation F2, N/P 6) [nm] | PDI N/P:6 ([2]; Formulation F3, N/P 6) | Size (nm) N/P:6 ([2]; Formulation F3, N/P 6) [nm] | PDI N/P:6 ([2]; Formulation F4, N/P 6) | Size (nm) N/P:6 ([2]; Formulation F4, N/P 6) [nm] | also measured
CCCCCCCC/C=C\CCCCCCCC(=O)OCC(COC(=O)CCCCCCC/C=C\CCCCCCCC)(COC(=O)CCCCCCC/C=C\CCCCCCCC)COC(=O)CCC(CCCCCC)OC(=O)NCCN1CCCC1 (stereo not shown) [Compound 1, 2-((oleoyloxy)methyl)-2-(((4-(((2-(pyrrolidin-1-yl)ethyl)carbamoyl)oxy)decanoyl)oxy)methyl)propane-1,3-diyl dioleate] | 0.8 p/s (×10^6) | 0.1 p/s (×10^6) | 0.1 p/s (×10^6) | 17.5 p/s (×10^6) | 99 | 102.4 | 100 | 100 | 100 | 100 | 89.9 | 0.143 | 0.072 | 74 ± 1 | 0.069 | 89 ± 2 | 0.051 | 107 ± 3 | 0.151 | 58 ± 2 | Organ Mean Total Flux Lung (mouse organs): 0.5 p/s (×10^6); Organ Mean Total Flux Muscle (mouse organs): 0.6 p/s (×10^6); Organ Mean Total Flux Pancreas (mouse organs): 0.2 p/s (×10^6); Organ Mean Total Flux Spleen (mouse organs): 1.7 p/s (×10^6); EE (%) N/P:3 ([1]; Formulation F1, N/P 3): 97%; EE (%) N/P:3 ([1]; Formulation F2, N/P 3): 98%; EE (%) N/P:3 ([1]; Formulation F3, N/P 3): 97%; EE (%) N/P:3 ([1]; Formulation F4, N/P 3): 98%; PDI N/P:3 ([2]; Formulation F1, N/P 3): 0.084; Size (nm) N/P:3 ([2]; Formulation F1, N/P 3): 85 ± 4 nm; PDI N/P:3 ([2]; Formulation F2, N/P 3): 0.052; Size (nm) N/P:3 ([2]; Formulation F2, N/P 3): 99 ± 2 nm; PDI N/P:3 ([2]; Formulation F3, N/P 3): 0.037; Size (nm) N/P:3 ([2]; Formulation F3, N/P 3): 136 ± 3 nm; PDI N/P:3 ([2]; Formulation F4, N/P 3): 0.153; Size (nm) N/P:3 ([2]; Formulation F4, N/P 3): 78 ± 1 nm
CCCCC/C=C\C/C=C\CCCCCCCC(=O)OCC(COC(=O)CCCCCCC/C=C\C/C=C\CCCCC)(COC(=O)CCCCCCC/C=C\C/C=C\CCCCC)COC(=O)CCC(CCCCCC)OC(=O)NCCN1CCCC1 (stereo not shown) [Compound 2, 2-((((9Z,12Z)-octadeca-9,12-dienoyl)oxy)methyl)-2-(((4-(((2-(pyrrolidin-1-yl)ethyl)carbamoyl)oxy)decanoyl)oxy)methyl)propane-1,3-diyl (9Z,9′Z,12Z,12′Z)-bis(octadeca-9,12-dienoate)] | 0.8 p/s (×10^6) | 0.2 p/s (×10^6) | 0.7 p/s (×10^6) | 99.8 p/s (×10^6) | 96 | 86 | 98 | 98 | 98 | 97 | 82.3 | 0.11 | 0.16 | 75 ± 8 | 0.04 | 84 ± 1 | 0.04 | 91 ± 0 | 0.18 | 65 ± 2 | Organ Mean Total Flux Lung (mouse organs): 2.6 p/s (×10^6); Organ Mean Total Flux Muscle (mouse organs): 0.5 p/s (×10^6); Organ Mean Total Flux Pancreas (mouse organs): 0.2 p/s (×10^6); Organ Mean Total Flux Spleen (mouse organs): 15.6 p/s (×10^6)
CCCCCCCC/C=C\CCCCCCCC(=O)OCC(COC(=O)CCCCCCC/C=C\CCCCCCCC)(COC(=O)CCC(CCCCCC)OC(=O)NCCN1CCCC1)COC(=O)CC12CC3CC(CC(C3)C1)C2 (stereo not shown) [Compound 3, [2-[[2-(1-adamantyl)acetyl]oxymethyl]-2-[[(Z)-octadec-9-enoyl]oxymethyl]-3-[4-(2-pyrrolidin-1ylethylcarbamoyloxy)decanoyloxy]propyl](Z)-octadec-9-enoate] | 1.3 p/s (×10^6) | 0.1 p/s (×10^6) | 0.1 p/s (×10^6) | 29.1 p/s (×10^6) | 96 | 83 | 98 | 99 | 98 | 98 | 89.1 | 0.08 | 0.09 | 74 ± 1 | 0.01 | 92 ± 1 | 0.07 | 102 ± 1 | 0.14 | 73 ± 1 | Organ Mean Total Flux Lung (mouse organs): 0.7 p/s (×10^6); Organ Mean Total Flux Muscle (mouse organs): 0.5 p/s (×10^6); Organ Mean Total Flux Pancreas (mouse organs): 0.2 p/s (×10^6); Organ Mean Total Flux Spleen (mouse organs): 1.4 p/s (×10^6)
CCCCCCCC/C=C\CCCCCCCC(=O)OCC(COC(=O)CCCCCCC/C=C\CCCCCCCC)(COC(=O)CCC(CCCCCC)OC(=O)NCCN1CCCC1)COC(=O)CCC(OCCCCCCCC)OCCCCCCCC (stereo not shown) [Compound 4, [2-(4,4-dioctoxybutanoyloxymethyl)-2-[[(Z)-octadec-9-enoyl]oxymethyl]-3-[4-(2-pyrrolidin-1-ylethylcarbamoyloxy)decanoyloxy]propyl](Z)-octadec-9-enoate] | 15.6 p/s (×10^6) | 4.4 p/s (×10^6) | 0.8 p/s (×10^6) | 105.0 p/s (×10^6) | 99 | 99.1 | 100 | 100 | 100 | 100 | 93.4 | 0.022 | 0.063 | 78 ± 2 | 0.069 | 93 ± 1 | 0.08 | 108 ± 2 | 0.12 | 73 ± 2 | Organ Mean Total Flux Lung (mouse organs): 39.9 p/s (×10^6); Organ Mean Total Flux Muscle (mouse organs): 18.4 p/s (×10^6); Organ Mean Total Flux Pancreas (mouse organs): 5.0 p/s (×10^6); Organ Mean Total Flux Spleen (mouse organs): 17.6 p/s (×10^6); EE (%) N/P:3 ([1]; Formulation F1, N/P 3): 98%; EE (%) N/P:3 ([1]; Formulation F2, N/P 3): 98%; EE (%) N/P:3 ([1]; Formulation F3, N/P 3): 94%; EE (%) N/P:3 ([1]; Formulation F4, N/P 3): 98%; PDI N/P:3 ([2]; Formulation F1, N/P 3): 0.092; Size (nm) N/P:3 ([2]; Formulation F1, N/P 3): 86 ± 10 nm; PDI N/P:3 ([2]; Formulation F2, N/P 3): 0.041; Size (nm) N/P:3 ([2]; Formulation F2, N/P 3): 97 ± 1 nm; PDI N/P:3 ([2]; Formulation F3, N/P 3): 0.089; Size (nm) N/P:3 ([2]; Formulation F3, N/P 3): 116 ± 6 nm; PDI N/P:3 ([2]; Formulation F4, N/P 3): 0.068; Size (nm) N/P:3 ([2]; Formulation F4, N/P 3): 73 ± 0 nm
CCCCCCCCOC(CCC(=O)OCC(COC(=O)CCCCCCOC(=O)C(CCCC)CCCCCC)(COC(=O)CCC(CCCCCC)OC(=O)NCCN1CCCC1)COC(=O)CCC(OCCCCCCCC)OCCCCCCCC)OCCCCCCCC (stereo not shown) [Compound 20, [7-[2,2-bis(4,4-dioctoxybutanoyloxymethyl)-3-[4-(2-pyrrolidin-1-ylethylcarbamoyloxy)decanoyloxy]propoxy]-7-oxo-heptyl]2-butyloctanoate] | – | – | – | – | 97 | 98 | 100 | 100 | 100 | 100 | 79 | 0.02 | 0.06 | 64 ± 1 | 0.03 | 76 ± 1 | 0.03 | 91 ± 2 | 0.05 | 61 ± 1 | –

Source: patent publication US20260234115A1, “LIPID COMPOUNDS, COMPOSITIONS, AND USES THEREOF” (Liberate Bio, Inc., priority 2023, published 2026)
